Test [1] deals with PI3Kα (Homo sapiens, UniProt P42336). Briefly: PI3K kinase activity inhibition assay. It is filed as biochemical. Conditions: Kinase-Glo Plus ATP detection, read-out: IC50 against PI3K. The procedure:
PI3Kα kinase activity was determined in the presence and absence of a test compound. The test compound was dissolved in DMSO and diluted serially with an ATP solution (30 μm ATP, 50 mM HEPES, pH 7.4, 50 mM NaCl, 0.05% CHAPS, 10 mM MgCl2, and 5 mM dithiothreitol [DTT]). First, 7 μl each of the serially diluted test compound solutions was added to each well of a black 384-well plate. Subsequently, 7 μl of a phosphatidylinositol 4,5-bisphosphate (PIP2) solution (45 μm PIP2, 50 mM HEPES, pH 7.4, 50 mM NaCl, 0.05% CHAPS, 10 mM MgCl2, and 5 mM DTT) was added to each well of the 384-well plate. Finally, 7 μl of a solution containing PI3Kα (50 nM PI3Kα, 50 mM HEPES, pH 7.4, 50 mM NaCl, 0.05% CHAPS, 10 mM MgCl2, and 5 mM DTT) was added to each well of the 384-well plate to initiate a reaction. The mixture was reacted at room temperature for 2 hours and then 21 μl of the Kinase-Glo Plusreagent (Promega) was, added to each well of the 384-well plate to terminate the reaction. After the termination of the reaction, the solution was left standing for 15 minutes and then luminescence was measured with ARVO (PerkinElmer Co., Ltd.) to detect ATP remaining in the reaction solution.
The amount of ATP consumed in the reaction was obtained for each well and used as an indicator of PI3Kαkinase activity. The PI3Kα kinase activity in wells not containing the test compound was calculated by the following formula (1). Furthermore, the PI3Kα kinase activity in wells containing the test compound was calculated by the following formula (2). The PI3Kα inhibitory activity (%) of the test compound was calculated by the following formula (3). PI3Kα kinase activity in wells not containing the test compound=B−C (1) PI3Kα kinase activity in wells containing the test compound=B−P (2) PI3Kα inhibitory activity (%) of test compound=100−100×[(B−P)/(B−C)] (3) B: Measured value in wells not containing PI3Kα or the test compound C: Measured value in wells containing PI3Kα and not containing the test compound P: Measured value in wells containing PI3Kα and the test compound
Furthermore, an optimal curve was calculated with Graph Pad Prism 4 using concentrations of the serially diluted test compound solutions and PI3Kα inhibitory activity (%) at each concentration to obtain the concentration showing 50% inhibition as the IC50 value of PI3Kα inhibitory activity.

The subject of test [2] is human ovary cancer cell strain IGROV1. The experiment in a line: Cell growth inhibition test (MTT), IGROV1. Format: cell-based. Conditions: IGROV-1, 72 h, IGROV1, 3 days culture, read-out: concentration exhibiting anti-cell effect (GI50). The method, then: (§1) After a cultured cancer cell strain was treated with a test compound for a predetermined period, a cell growth inhibition test was performed by measuring the living cell count by the 3-(4,5-dimethylthiazol-2-yl)-2,5-diphenyltetrazoliumbromide (MTT) method.
(§2) Human endometrial cancer cell strain AN3CA, human ovary cancer cell strain IGROV1, and human colon cancer cell strain HT29 were seeded in a 96-well plate at 5000, 1000, and 5000 cells, respectively, per well. On the following day of seeding, a test compound having a predetermined concentration was added and the culture was continued at 37° C. in 5% CO2 for 3 days. On the final day of culture, an MTT reaction solution was added and the resulting mixture was reacted for 4 hours to form formazan by dehydrogenases contained in living cells. Subsequently, the culture broth was removed, DMSO was added to solubilize formazan, and the amount of produced formazan was determined by measuring absorbance at 540 nm using a microplate reader.
(§3) Since correlations of the amount of produced formazan and the living cell count had been confirmed, the cell growth rate was calculated by the following formula. Cell growth rate (T/C %) after addition of test compound=100×[(B−C)/(A−C)] A: Absorbance of well not containing test compound (final culture day) B: Absorbance of well containing test compound (final culture day) C: Absorbance of well immediately before addition of test compound (following day of cell seeding)
(§4) Furthermore, the cell growth rate at each concentration of serially diluted test compound solutions was obtained, and the concentration of the test compound resulting in a 50% growth rate was obtained as the GI50 value from two concentrations including 50% therebetween and the growth rates were selected.

Test [3] addresses T1, human mTOR (His-tagged mTOR (1362C)) (Homo sapiens, UniProt P42345).
T1 construct: the 1362 to 2549 amino acid portion on the C terminus side of human mTOR; His tag (N); made in house
Briefly: mTOR kinase activity inhibition assay. Format: biochemical. Conditions: HTRF, read-out: IC50 against mTOR. The method, then:
The mTOR kinase activity was determined in the presence and absence of a test compound. A substrate peptide is phosphorylated by mTOR kinase activity. A complex of streptavidin-XL665 and anti-phosphorylated S6K (Thr389) antibody-anti-mouse IgG-cryptate binds to this phosphorylated peptide. At this time, irradiation of excitation light induces transfer of fluorescence resonance energy from the excited cryptate to XL665, emitting fluorescence at 665 nm. Utilizing this principle, mTOR kinase activity was detected. When the mTOR inhibitor is present, phosphorylation of a substrate peptide is inhibited, and the biding of the above-mentioned complex to the substrate peptide is inhibited.
A His tag was introduced into the N terminus end of the 1362 to 2549 amino acid portion on the C terminus side of human mTOR, and a cell line was prepared, so that His-tagged mTOR should be constantly expressed in a HEK293 cell. A cell lysate was prepared from this HEK293 cell which constantly expressed His-tagged mTOR (1362C), and a crude product of His-tagged mTOR (1362C) was obtained by a usual method utilizing His tag.
Subsequently, an mTOR enzyme solution was prepared which contained the above-mentioned His-tagged mTOR (1362C) enzyme and 8 μg/ml biotinylated peptide (Biotin-Ahx-[…]-amide [Sigma]), as well as 50 mM HEPES (pH 7.5), 20 mM MnCl2, 1 mg/ml BSA, a suitable amount of protease inhibitor cocktail (Complete EDTA free, Roche Ltd.), 100 ng/ml calyculin A, and 4 μg/ml cantharidin as other components.
The test compound was dissolved in dimethyl sulfoxide (DMSO) and serially diluted with 20 μm ATP solution (50 mM HEPES (pH 7.5), 20 μM ATP) to obtain concentrations required for the assay. 5 μl of this compound solution was added to each well of a 384-well small volume white plate manufactured by Greiner Bio-One Co., Ltd.
5 μl of the mTOR enzyme solution was added to the above-mentioned well containing the test compound and the resulting mixture was left standing for 3 hours room temperature to proceed an enzymatic reaction.
The same procedure was performed using a solution obtained by dissolving DMSO in 20 μM ATP solution as a positive control and a solution obtained by dissolving DMSO in 50 mM HEPES buffer (pH 7.5) as a negative control.
After the enzymatic reaction, 5 μl each of an europium solution (a solution obtained by dissolving anti-mouse IgG-cryptate [SCETI Medical Labo K.K.] and anti-phosphorylation S6K [Thr389] antibody [Cell Signaling Technology Inc.] in 50 mM HEPES [pH 7.5], 100 mM EDTA, and 1.5 mg/ml BSA) and an XL665 solution (a solution obtained by dissolving Streptavidin-XL 665 [SCETI Medical Labo K.K.] in 50 mM HEPES [pH 7.5], 100 mM EDTA, 0.8 M KF, and 1.5 mg/ml BSA) were added in this order and mixed and the resulting mixture was left standing overnight at 4° C. On the following day, the mixture was returned to room temperature and then irradiated with 337-nm excitation light and fluorescence at 620 and 665 nm was measured with RUBYstar (BMG LABTECH JAPAN Ltd.).
mTOR inhibitory activity (%) was calculated using the ratio calculated from the measured values as an indicator of enzyme activity. Here, the ratio was calculated by the following formula (1). Ratio=10,000×fluorescence at 665 nm/fluorescence at 620 nm (1)
mTOR enzyme inhibitory activity (%) was calculated by the following formula (2). mTOR enzyme inhibitory activity (%)=100×[(P−S)/(P−N)] (2) P: Ratio in positive control well N: Ratio in negative control well S: Ratio in well containing the test compound
Furthermore, an optimal curve was created using the concentrations of the serially diluted test compound solutions and mTOR enzyme inhibitory activity (%) at each concentration to obtain the concentration showing 50% inhibition as the IC50 value of mTOR enzyme inhibitory activity.
On the technique in general: TR-FRET usually uses a lanthanide donor and a delayed reading to cut background.

Test [4] deals with human endometrial cancer cell strain AN3CA. Briefly: Cell growth inhibition test (MTT), AN3CA. Format: cell-based. Conditions: AN3-CA, 72 h, 3 days culture, read-out: concentration exhibiting anti-cell effect (GI50). The method, then:
as §1, §2, §3, §4

In test [5] the test system is human colon cancer cell strain HT29. Briefly: Cell growth inhibition test (MTT), HT29. Format: cell-based. Conditions: HT-29, 72 h, HT29, 3 days culture, read-out: concentration exhibiting anti-cell effect (GI50). The procedure:
as §1, §2, §3, §4

SMILES strings stand for the structures.

Chain of PI3Kα (P42336 whole entry, species assumed): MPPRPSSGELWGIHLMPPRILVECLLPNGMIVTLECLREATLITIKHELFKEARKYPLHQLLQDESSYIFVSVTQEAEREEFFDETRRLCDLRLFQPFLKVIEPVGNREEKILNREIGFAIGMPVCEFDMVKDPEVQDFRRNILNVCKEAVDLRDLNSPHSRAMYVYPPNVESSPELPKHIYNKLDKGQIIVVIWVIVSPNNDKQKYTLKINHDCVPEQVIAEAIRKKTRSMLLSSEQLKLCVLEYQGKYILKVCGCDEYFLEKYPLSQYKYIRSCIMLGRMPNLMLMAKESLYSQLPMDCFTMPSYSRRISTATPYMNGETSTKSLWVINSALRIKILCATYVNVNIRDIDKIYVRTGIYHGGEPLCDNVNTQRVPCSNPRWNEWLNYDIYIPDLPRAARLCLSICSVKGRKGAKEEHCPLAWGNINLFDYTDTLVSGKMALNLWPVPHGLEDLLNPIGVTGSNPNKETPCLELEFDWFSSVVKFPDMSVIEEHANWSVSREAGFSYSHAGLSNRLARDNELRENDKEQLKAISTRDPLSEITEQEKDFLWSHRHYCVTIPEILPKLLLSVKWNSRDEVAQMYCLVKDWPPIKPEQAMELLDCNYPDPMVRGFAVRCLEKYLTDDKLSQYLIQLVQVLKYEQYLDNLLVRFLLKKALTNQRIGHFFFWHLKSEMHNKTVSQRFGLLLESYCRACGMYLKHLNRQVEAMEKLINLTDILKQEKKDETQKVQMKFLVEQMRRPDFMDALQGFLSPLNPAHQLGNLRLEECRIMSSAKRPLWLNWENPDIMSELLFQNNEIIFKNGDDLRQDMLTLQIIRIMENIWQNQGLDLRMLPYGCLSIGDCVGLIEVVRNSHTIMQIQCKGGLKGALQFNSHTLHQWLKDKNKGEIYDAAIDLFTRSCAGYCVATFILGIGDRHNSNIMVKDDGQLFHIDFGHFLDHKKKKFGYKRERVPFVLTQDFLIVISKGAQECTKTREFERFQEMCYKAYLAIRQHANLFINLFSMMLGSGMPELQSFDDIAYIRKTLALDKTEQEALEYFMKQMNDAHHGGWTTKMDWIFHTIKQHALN
Chain of PI3Kα (P27986 whole entry partner, species assumed): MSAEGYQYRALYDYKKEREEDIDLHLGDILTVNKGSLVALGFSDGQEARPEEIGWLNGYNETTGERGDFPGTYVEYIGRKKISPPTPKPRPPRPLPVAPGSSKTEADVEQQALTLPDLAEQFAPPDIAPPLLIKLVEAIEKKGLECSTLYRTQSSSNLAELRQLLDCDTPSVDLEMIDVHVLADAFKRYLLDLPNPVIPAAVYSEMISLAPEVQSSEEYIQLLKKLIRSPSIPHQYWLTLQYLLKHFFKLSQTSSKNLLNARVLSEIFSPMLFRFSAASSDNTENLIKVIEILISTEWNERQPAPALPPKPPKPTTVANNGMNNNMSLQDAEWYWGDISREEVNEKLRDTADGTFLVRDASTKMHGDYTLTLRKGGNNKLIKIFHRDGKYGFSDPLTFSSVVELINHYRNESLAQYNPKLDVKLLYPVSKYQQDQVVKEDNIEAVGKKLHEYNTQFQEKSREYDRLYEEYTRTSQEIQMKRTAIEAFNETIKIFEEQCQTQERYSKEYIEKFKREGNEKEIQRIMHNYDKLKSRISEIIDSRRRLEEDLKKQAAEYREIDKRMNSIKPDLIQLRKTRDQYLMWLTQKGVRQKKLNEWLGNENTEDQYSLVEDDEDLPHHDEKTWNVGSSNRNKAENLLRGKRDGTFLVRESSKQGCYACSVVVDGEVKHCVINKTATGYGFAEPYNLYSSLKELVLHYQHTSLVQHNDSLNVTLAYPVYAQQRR
T1 sequence (P42345 1362-2549): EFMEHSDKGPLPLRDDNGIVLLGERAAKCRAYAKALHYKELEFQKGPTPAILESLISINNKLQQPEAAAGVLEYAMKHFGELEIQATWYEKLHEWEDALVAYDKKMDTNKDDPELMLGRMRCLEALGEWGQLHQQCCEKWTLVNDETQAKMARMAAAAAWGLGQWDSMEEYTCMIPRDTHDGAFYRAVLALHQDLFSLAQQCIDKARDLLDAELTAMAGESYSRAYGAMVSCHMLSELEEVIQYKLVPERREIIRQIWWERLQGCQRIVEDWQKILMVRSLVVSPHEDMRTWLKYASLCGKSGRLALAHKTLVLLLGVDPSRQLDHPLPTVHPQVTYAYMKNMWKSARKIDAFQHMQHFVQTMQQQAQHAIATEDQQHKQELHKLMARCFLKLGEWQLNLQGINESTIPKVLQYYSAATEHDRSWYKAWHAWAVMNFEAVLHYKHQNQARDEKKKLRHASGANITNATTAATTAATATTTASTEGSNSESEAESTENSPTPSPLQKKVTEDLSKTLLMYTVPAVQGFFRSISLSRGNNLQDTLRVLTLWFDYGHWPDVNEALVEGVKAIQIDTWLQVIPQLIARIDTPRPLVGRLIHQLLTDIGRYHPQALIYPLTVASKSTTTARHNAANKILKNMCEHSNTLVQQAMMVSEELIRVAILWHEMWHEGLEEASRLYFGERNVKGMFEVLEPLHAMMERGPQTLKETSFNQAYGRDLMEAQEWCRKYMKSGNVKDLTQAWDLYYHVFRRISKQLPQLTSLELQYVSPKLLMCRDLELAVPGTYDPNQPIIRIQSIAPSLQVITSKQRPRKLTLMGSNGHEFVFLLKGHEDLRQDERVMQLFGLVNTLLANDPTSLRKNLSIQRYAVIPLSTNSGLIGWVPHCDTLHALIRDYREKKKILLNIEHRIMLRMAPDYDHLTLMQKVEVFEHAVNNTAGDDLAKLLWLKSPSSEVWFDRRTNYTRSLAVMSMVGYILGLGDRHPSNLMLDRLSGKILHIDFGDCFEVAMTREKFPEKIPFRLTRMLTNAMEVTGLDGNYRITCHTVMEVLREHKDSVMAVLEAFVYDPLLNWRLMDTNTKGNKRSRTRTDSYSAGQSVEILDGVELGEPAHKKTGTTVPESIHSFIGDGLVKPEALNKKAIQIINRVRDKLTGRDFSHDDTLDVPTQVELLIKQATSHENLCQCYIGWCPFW

As usually defined, the IC50 is the concentration needed to halve the response being measured. For the compound `CNc1ncc(-c2nc(N3CCOCC3)c3nc(N4CCN(S(C)(=O)=O)CC4)n(CC4CCOC4)c3n2)cn1` (stereo not shown) [Example 25, N-Methyl-5-{8-[4-(methylsulfonyl)piperazin-1-yl]-6-morpholin-4-yl-9-(tetrahydrofuran-3-ylmethyl)-9H-purin-2-yl}pyrimidin-2-amine], the IC50 fell in the range of 20 to 50 nM in test [1] and 30 to 100 nM in test [3]. Further, the GI50 in test [2], in test [4] and in test [5] was no more than 5 µM each time.

As for `C[C@@H]1CN(c2nc3c(N4CCOCC4)nc(-c4cnc(N)nc4)nc3n2[C@H]2CCN(S(C)(=O)=O)C2)C[C@H](C)N1` [Example 26, 5-{8-(cis-3,5-Dimethylpiperazin-1-yl)-9-[(3S)-1-(methylsulfonyl)pyrrolidin-3-yl]-6-morpholin-4-yl-9H-purin-2-yl}pyrimidin-2-amine], the results for the 50% inhibitory concentration (IC50) in test [1] and in test [3] were 20 to 50 nM and 100 to 500 nM, respectively. The GI50 in test [2], in test [4] and in test [5] was no more than 5 µM each time.

As for `CS(=O)(=O)N1CCN(c2nc3c(N4CCOCC4)nc(-c4cnc(N)nc4)nc3n2[C@H]2CCN(S(C)(=O)=O)C2)CC1` [Example 27, 5-{8-[4-(Methylsulfonyl)piperazin-1-yl]-9-[(3S)-1-(methylsulfonyl)pyrrolidin-3-yl]-6-morpholin-4-yl-9H-purin-2-yl}pyrimidin-2-amine], the concentration for half-maximal inhibition (IC50) in test [1] is 20 to 50 nM; in test [3], 30 to 100 nM. Further, the GI50 in test [2], in test [4] and in test [5] was no more than 5 µM in each case.

Turning to `CN(C)CCNc1nc2c(N3CCOCC3)nc(-c3cnc(N)nc3)nc2n1CC1CC1` [Example 28, N′-[2-(2-Aminopyrimidin-5-yl)-9-(cyclopropylmethyl)-6-morpholin-4-yl-9H-purin-8-yl]-N,N-dimethylethane-1,2-diamine], the concentration for half-maximal inhibition (IC50) in test [1] lay in the range of 10 to 20 nM; in test [3], 100 to 500 nM. The GI50 in test [2], in test [4] and in test [5] was no more than 5 µM each time.

Consider `Nc1ncc(-c2nc(N3CCOCC3)c3nc(NCCN4CCOCC4)n(CC4CC4)c3n2)cn1` [Example 29, 2-(2-Aminopyrimidin-5-yl)-9-(cyclopropylmethyl)-6-morpholin-4-yl-N-(2-morpholin-4-ylethyl)-9H-purin-8-amine], for which the half-maximal inhibitory concentration (IC50) in test [1] was 10 to 20 nM; in test [3], 100 to 500 nM. The GI50 in test [2], in test [4] and in test [5] was no more than 5 µM each time.

With `Nc1ncc(-c2nc(N3CCOCC3)c3nc(NCCO)n(CC4CC4)c3n2)cn1` [Example 30, 2-{[2-(2-Aminopyrimidin-5-yl)-9-(cyclopropylmethyl)-6-morpholin-4-yl-9H-purin-8-yl]amino}ethanol], the values for the IC50 in test [1] and in test [3] were 10 to 20 nM and 30 to 100 nM, respectively. The GI50 in test [2], in test [4] and in test [5] was no more than 5 µM in each case.

For `Nc1ncc(-c2nc(N3CCOCC3)c3nc(N4CCC(S(=O)(=O)c5ccccc5)C4)n(CC4CC4)c3n2)cn1` (stereo not shown) [Example 31, 5-{9-(Cyclopropylmethyl)-6-morpholin-4-yl-8-[3-(phenylsulfonyl)pyrrolidin-1-yl]-9H-purin-2-yl}pyrimidin-2-amine], the figures for the half-maximal inhibitory concentration (IC50) in test [1] and in test [3] were less than 10 nM and 30 to 100 nM, respectively. In addition, the GI50 in test [2], in test [4] and in test [5] was no more than 5 µM in each case.

`Cc1nc(N)ncc1-c1nc(N2CCOCC2)c2nc(NCCNS(C)(=O)=O)n(CC3CC3)c2n1` [Example 32, N-(2-{[2-(2-Amino-4-methylpyrimidin-5-yl)-9-(cyclopropylmethyl)-6-morpholin-4-yl-9H-purin-8-yl]amino}ethyl)methanesulfonamide]: the IC50 in test [1] is 20 to 50 nM; in test [3], no less than 500 nM. For the same compound, the GI50 in test [2], in test [4] and in test [5] was no more than 5 µM in each case.

Values taken from patent publication US8309546B2, “Morpholinopurine derivatives” (Daiichi Sankyo Company, Limited, priority 2008, dated 2012).
